Data set [1] relates to FUUR1, MoJo, SYO1 and HSSY1 cancer cell lines. The data set can be described thus: MTT viability/proliferation assay on cancer cell lines (Example 2). In kind it is cell-based. The conditions noted are these: all cell lines tested (FUUR1, MoJo, SYO1, HSSY1); multiple concentrations; FIG. 11. The text has this:
(§1) The viability of several different cancer cell lines including FUUR1, MoJo, SYO1, and the sarcoma cell line HSSY1 using the MTT assay across multiple concentrations and time points and compared with native Ang 1-7 as positive control and Ang II as negative control. The impact of Mas receptor activation by Ang peptide conjugate on gene expression of different components of the RAS, such as ACE1, ACE2, AT1R. Mas receptor was also studied using quantitative PCR using the different cancerous cell lines.

The subject of data set [2] is adjuvant-induced arthritis. The data set can be described thus: Adjuvant-induced arthritis rat model (body weight, paw and joint diameters, plasma NO). Type of data set: in vivo, male Sprague Dawley rats. Particulars: for inflammation and swelling of paws and joints (in words): preventive and treatment groups; for Mean body weight (SD); body weight gain (%) compared with day 1 / Mean body weight (SD); body weight gain (%) after 7 days of dosing: inflamed animals. The procedure: (§2) The Ang peptide conjugate described in Example 1 was examined for anti-inflammatory effect on adjuvant-induced arthritis in a rat animal model. On day one, for induction of adjuvant arthritis, male Sprague Dawley rats were injected at the tail base with 0.2 mL of 50 mg/mL Mycobacterium butyricum. Arthritic animals were divided into 4 groups and treated with saline, Ang II, Ang 1-7 or Ang peptide conjugate. A group of healthy rats received vehicle as control group. Preventive and treatment groups subcutaneously received 200 μg/kg equitant dose daily from day one for 3 weeks or after emergence of arthritis for 1 week, respectively. Animals were monitored daily for their body weight, paw and joint diameters. Animals were then euthanized, plasma/tissues were harvested and analyzed for plasma nitric oxide (NO), and the RAS components.

Data set [3] concerns cardiac ACE2, ACE and Mas receptor expression. The data set can be described thus: Cardiac RAS component expression in adjuvant-induced arthritis rats. In kind it is in vivo. Particulars: for cardiac ACE2/ACE ratio: preventive treatment, FIG. 16, 17; for cardiac Mas receptor expression: treatment after establishment of inflammation, FIG. 18, 19. As for the experimental part:
as §2, with “On” for “The Ang peptide conjugate described in Example 1 was examined for anti-inflammatory effect on adjuvant-induced arthritis in a rat animal model. On”

The subject of data set [4] is mRNA of RAS components (ACE, ACE2, AT1R, Mas receptor) in cancer cell line HSSY1. The data set can be described thus: Quantitative PCR of RAS component gene expression. In kind it is cell-based. The conditions noted are these: FIG. 12.
Source text: as §1

A short description of data set [5]: Pharmacokinetic study, plasma half-life. In kind it is in vivo, rats. The procedure:
(§3) Pharmacokinetic studies were conducted using rats for calculation of biological half-life and other pharmacokinetic parameters of the conjugates in comparison with native peptides. The tissue distribution of conjugates was conducted on main organs, such as bone (major target), heart, liver, kidney, lung, etc.

Data set [6] relates to synovial sarcoma cell lines SYO1 and MoJo, renal carcinoma cell line FUUR1. The data set can be described thus: In vitro cell viability / anti-proliferative activity on cancer cell lines (Example 1). In kind it is cell-based. Particulars: various concentrations, FIG. 6-8. As for the experimental part: Upon confirmation of final chemical structure of the active conjugates, the anti-proliferative activity was tested using different cancer cell lines, including synovial sarcoma cell lines SYO1 and MoJo, and the renal carcinoma cell line FUUR1. Results comparing the percent viability of the tested cell lines upon incubation with AngII, Ang1-7, or the Ang peptide conjugate are provided in FIG. 6 (SYO1), FIG. 7 (MoJo) and FIG. 8 (FUUR1). The cell lines were incubated with concentrations of the tested materials at various concentrations, as shown.

A short description of data set [7]: Stability of the conjugate in solution by HPLC-UV. In kind it is physicochemical. As for the experimental part:
At 1, 3, 7, 10, 15, 30 days; 100 μL of the solutions were sampled and after adding stable Ang II as internal standard samples analyzed by HPLC-UV to monitor the stability of the conjugate over time. Table 3, below, provides the percent of the Ang peptide conjugate remaining in each sample after storage for 4 weeks.

A short description of data set [8]: Tissue distribution of radiolabeled peptides. Type of data set: in vivo. Particulars: rats, i.v. or s.c.; FIG. 9. The procedure:
as §3

The test system of data set [9] is osteosarcoma tumors. The data set can be described thus: Osteosarcoma tumor-bearing mouse model, tumor size. In kind it is in vivo, mice. Particulars: s.c. twice daily, equivalent dose of Ang 1-7 of 400 μg/kg, three weeks; FIG. 13. As for the experimental part:
The Ang peptide conjugate described in Example 1 was examined for inhibition of the RAS in an advanced form of osteosarcoma. For the in vivo study, a group of mice bearing osteosarcoma tumors was divided into three different groups and subcutaneously dosed twice daily with vehicle (PEG 400: normal Saline, 3:2), Ang 1-7, or Ang peptide conjugate (equivalent dose of Ang 1-7 of 400 μg/kg) for three weeks. The tumor size was measured three times a week. Tumor tissues were harvested and kept in appropriate medium in −80° C. for further analysis of different cancer biomarkers.

Where [10] appears, read: preventive arm, compared with day 1.
The mark [11] stands for this setting: treatment arm, after 7 days of dosing.

Marks after values point to notes of the source that are not given here.

Regarding “Angiotensin II (DRVYIHPF; Angiotensin-2; UniProt P01019 25-32, looked up) [Ang II, native Angiotensin II peptide, pro-inflammatory agent, negative control]”, the “effect on cell proliferation” value in [1] is recorded as “remarkable proliferative effect”. For the same substance, the “inflammation and swelling of paws and joints (in words)” value (shortened to “inflammation and swelling”) in [2] was “made the situation worse”. Also, the “Difference vs. Inf- Vehicle in body weight gain (%)” value (shortened to “Difference vs. Inf- Vehicle … (%)”) in data set [2] (setting [10]) came to 4.32%. Also, in [2] (preventive arm), the “Mean body weight (SD); body weight gain (%) compared with day 1” value is 13.2 (3.1) %.
For “Ang peptide conjugate: Ang 1-7 peptide bonded at N-terminus to 27-mer mono-disperse PEG(maleimide)2 spacer conjugated with a thiol-bisphosphonate”, in [1], the “effect on cell proliferation” value is given as “anti-proliferative effect was more pronounced”. In addition, the “cardiac ACE2/ACE ratio” value in data set [3] is recorded as “restored this balance”. In data set [3], the “cardiac Mas receptor expression” value is reported as “restored this balance”. The ACE2 gene expression entry in [4] is recorded as “significantly higher”. In [4], the ACE gene expression result was “enhanced to some level”. For the same substance, the AT1R gene expression result in [4] is given as “enhanced to some level”. Also, the “Mas receptor gene expression” value in [4] is “significantly higher”. For the same substance, the “increase in plasma half-life as compared to the native peptide” value in data set [5] (after intravenous administration) turned out to be 10 fold. Further, the “increase in half-life as compared to the native peptide” value in [5] (after subcutaneous injection) was 15 fold. Besides, the “half-life compared with native peptides” value in data set [5] (rats, FIG. 10) is on record as “longer half-life”. Further, in data set [6], the “cell viability compared with native peptides” value is given as “superior activity”. The “percent of conjugate remaining” value in [7] (Acetate buffer (pH 5.5), 4 °C, 5 days) is on record as 98.4%; in data set [7] (Acetate buffer (pH 5.5), 4 °C, 28 days) it was 98.0%; in [7] (Acetate buffer (pH 5.5), 25 °C, 5 days), 94.3%; in [7] (Acetate buffer (pH 5.5), 25 °C, 28 days), 93.3%; in data set [7] (Acetate buffer (pH 5.5), −20 °C, 5 days), 99.8%; in data set [7] (Acetate buffer (pH 5.5), −20 °C, 28 days), 99.5%. For the same substance, the “percent of conjugate remaining” value in [7] (D. D. Water (pH 6.5), 4 °C, 5 days) worked out at 95.9%; in data set [7] (D. D. Water (pH 6.5), 4 °C, 28 days), 92.4%; in [7] (D. D. Water (pH 6.5), 25 °C, 5 days), 90.6%; in data set [7] (D. D. Water (pH 6.5), 25 °C, 28 days), 64.0%; in [7] (D. D. Water (pH 6.5), −20 °C, 5 days) it was 99.5%; in data set [7] (D. D. Water (pH 6.5), −20 °C, 28 days) it was 99.1%. The “percent of conjugate remaining” value came out at 91.9% in data set [7] (Phosphate buffer (pH 7.4), 4 °C, 5 days); 79.2% in data set [7] (Phosphate buffer (pH 7.4), 4 °C, 28 days); 72.8% in data set [7] (Phosphate buffer (pH 7.4), 25 °C, 5 days); 22.6% in data set [7] (Phosphate buffer (pH 7.4), 25 °C, 28 days); 99.2% in [7] (Phosphate buffer (pH 7.4), −20 °C, 5 days); 98.9% in data set [7] (Phosphate buffer (pH 7.4), −20 °C, 28 days). Besides, the “tissue distribution compared with native peptides” value in [8] is “higher affinity to thyroid and bone”. The tumor growth inhibition entry in [9] was “potently inhibited tumor growth after 3-4 days”. Besides, the “inflammation and swelling” value in data set [2] is “reduced the inflammation and swelling to a comparable level with the control group”. Moreover, the “Difference vs. Inf- Vehicle … (%)” value amounted to 6.22% in [2] (setting [10]) and 3.0% in [2] (setting [11]). For the same substance, the “Mean body weight (SD); body weight gain (%) compared with day 1” value in data set [2] (preventive arm) is reported as 15.1 (12.0) %. For the same substance, the “plasma level of NO” value is listed as “reduce the elevated plasma level of NO” in [2] (preventive arm, 200 μg/kg s.c. daily from day one for 3 weeks, FIG. 14) and “reduce the elevated plasma level of NO” in [2] (treatment arm, 200 μg/kg s.c. daily for 1 week after emergence of arthritis, FIG. 15). The “Mean body weight (SD); body weight gain (%) after 7 days of dosing” value in [2] (treatment arm) is listed as 7.3 (4.3) * %.
Take “Angiotensin 1-7 (DRVYIHP) [Ang 1-7, reference compound]”: the “effect on cell proliferation” value in data set [1] is “significant concentration dependent decrease on cell proliferation”. In addition, in [3], the “cardiac ACE2/ACE ratio” value is “restored this balance” and the “cardiac Mas receptor expression” value is on record as “restored this balance”. In [4], the ACE2 gene expression result was “did not significantly change”, the ACE gene expression result is recorded as “very large effect”, the AT1R gene expression entry was “did not significantly change” and the “Mas receptor gene expression” value is “did not significantly change”. Besides, in data set [9], the tumor growth inhibition result is “milder effect after 10 days”. Also, the “inflammation and swelling” value in [2] is “reduced the inflammation and swelling to a comparable level with the control group”. Besides, the “Difference vs. Inf- Vehicle … (%)” value in [2] (setting [10]) is given as 4.78%. Moreover, in data set [2] (preventive arm), the “Mean body weight (SD); body weight gain (%) compared with day 1” value is 13.6 (8.8) %. The “Difference vs. Inf- Vehicle … (%)” value in data set [2] (setting [11]) is given as 5.7%. Also, the “Mean body weight (SD); body weight gain (%) after 7 days of dosing” value in data set [2] (treatment arm) is recorded as 10.0 (4.8) * %.

Source of the values: patent publication US20210077567A1, “Targeted Angiotensin 1-7 Peptide Conjugates and Formation and Use Thereof” (IDAHO STATE UNIVERSITY, priority 2019, published 2021).
